# Where “and” joins values, the source holds several entries; their conditions need not be identical. Identical values can stand only once. Toxic doses and inconclusive results are not listed.
# Tested on: CD2F1 mice, ip Colon 26 adenocarcinoma, median survival T/C
# Experiment: NCI In Vivo Anticancer Drug Screen. Data for tumor model Colon 26 Adenocarcinoma (intraperitoneal) in CD2F1 (CDF1) mice
# Settings: endpoint: median survival time, higher = longer survival
# Method: The antitumor activity of compounds was measured in mice bearing transplantable tumors. Survival or tumor size were measured and the results are expressed as the measurement made in the treated group (T) divided by the measurement made in the vehicle treated control group (C). The tumor model used in this assay is Colon 26 Adenocarcinoma (intraperitoneal) in CD2F1 (CDF1) mice
# [1] = dose: 3.12 mg/kg/injection, schedule: Q04DX003 (ip), vehicle: saline with Tween-80
# [2] = dose: 6.25 mg/kg/injection, schedule: Q04DX003 (ip), vehicle: saline with Tween-80
# [3] = dose: 12.5 mg/kg/injection, schedule: Q04DX003 (ip), vehicle: saline with Tween-80
# [4] = dose: 12.5 mg/kg/injection, schedule: Q04DX003 (ip), vehicle: saline
# [5] = dose: 25.0 mg/kg/injection, schedule: Q04DX003 (ip), vehicle: saline
# [6] = dose: 50.0 mg/kg/injection, schedule: Q04DX003 (ip), vehicle: saline
# [7] = dose: 100.0 mg/kg/injection, schedule: Q04DX003 (ip), vehicle: saline
smiles,measurement,setting,value
CN1C(=O)NC(c2ccc(Cl)cc2)(c2ccc(Cl)cc2)C1=O,T/C,"dose: 12.5 mg/kg/injection, schedule: Q04DX002 (ip), vehicle: distilled water + Tween-80",106 % of control
same,T/C,"dose: 12.5 mg/kg/injection, schedule: Q04DX002 (ip), vehicle: saline with Tween-80",105 % of control
same,T/C,"dose: 25.0 mg/kg/injection, schedule: Q04DX002 (ip), vehicle: distilled water + Tween-80",100 % of control
same,T/C,"dose: 25.0 mg/kg/injection, schedule: Q04DX002 (ip), vehicle: saline with Tween-80",111 % of control
same,T/C,"dose: 50.0 mg/kg/injection, schedule: Q04DX002 (ip), vehicle: distilled water + Tween-80",114 % of control
same,T/C,"dose: 50.0 mg/kg/injection, schedule: Q04DX002 (ip), vehicle: saline with Tween-80",97 % of control
same,T/C,"dose: 100.0 mg/kg/injection, schedule: Q04DX002 (ip), vehicle: saline with Tween-80",102 % of control
same,T/C,"dose: 200.0 mg/kg/injection, schedule: Q04DX002 (ip), vehicle: saline with Tween-80",91 % of control
same,T/C,"dose: 400.0 mg/kg/injection, schedule: Q04DX002 (ip), vehicle: saline with Tween-80",91 % of control
CCC[P+](c1ccccc1)(c1ccccc1)c1ccccc1,T/C,[1],112 % of control
same,T/C,[2],107 % of control
same,T/C,[3],104 % of control
same,T/C,"dose: 25.0 mg/kg/injection, schedule: Q04DX003 (ip), vehicle: saline with Tween-80",110 % of control
same,T/C,"dose: 50.0 mg/kg/injection, schedule: Q04DX003 (ip), vehicle: saline with Tween-80",110 % of control
COc1cccc2c1C(=O)c1c(O)c3c(c(O)c1C2=O)C[C@@](O)(C(=O)CO)C[C@@H]3OC1CC([N+](C)(C)C)C(O)C(C)O1 (some centres not stated),T/C,"dose: 5.4 mg/kg/injection, schedule: Q04DX003 (ip), vehicle: water",102 % of control
same,T/C,"dose: 9.0 mg/kg/injection, schedule: Q04DX003 (ip), vehicle: water",103 % of control
same,T/C,"dose: 15.0 mg/kg/injection, schedule: Q04DX003 (ip), vehicle: water",96 % of control
same,T/C,"dose: 25.0 mg/kg/injection, schedule: Q04DX003 (ip), vehicle: water",115 % of control
CC(C)NC(=O)OCc1c(COC(=O)NC(C)C)c(-c2ccc(Cl)c(Cl)c2)n2c1CCC2,T/C,"dose: 2.5 mg/kg/injection, schedule: Q01DX009 (ip), vehicle: distilled water + Tween-80",173 % of control
same,T/C,"dose: 5.0 mg/kg/injection, schedule: Q01DX009 (ip), vehicle: distilled water + Tween-80",162 % of control
same,T/C,"dose: 10.0 mg/kg/injection, schedule: Q01DX009 (ip), vehicle: distilled water + Tween-80",232 % of control
same,T/C,"dose: 20.0 mg/kg/injection, schedule: Q01DX009 (ip), vehicle: distilled water + Tween-80",289 % of control
same,T/C,"dose: 40.0 mg/kg/injection, schedule: Q01DX009 (ip), vehicle: distilled water + Tween-80",163 % of control
CC[N+](CC)(CC)CC,T/C,"dose: 1.56 mg/kg/injection, schedule: Q04DX003 (ip), vehicle: saline with Tween-80",114 % of control
same,T/C,[1],107 % of control and 113 % of control
same,T/C,[2],111 % of control
same,T/C,[3],175 % of control
same,T/C,"dose: 12.5 mg/kg/injection, schedule: Q04DX003 (oral), vehicle: saline with Tween-80",109 % of control
same,T/C,"dose: 25.0 mg/kg/injection, schedule: Q04DX003 (oral), vehicle: saline with Tween-80",105 % of control
same,T/C,"dose: 50.0 mg/kg/injection, schedule: Q04DX003 (oral), vehicle: saline with Tween-80",104 % of control
same,T/C,"dose: 100.0 mg/kg/injection, schedule: Q04DX003 (oral), vehicle: saline with Tween-80",94 % of control
NC(=O)c1ncn(C2OC(CO)C(O)C2O)c1O (configuration not stated),T/C,"dose: 50.0 mg/kg/injection, schedule: Q04DX002 (ip), vehicle: Klucel (hydroxypropylcellulose) (HPC)",107 % of control
same,T/C,"dose: 100.0 mg/kg/injection, schedule: Q04DX002 (ip), vehicle: Klucel (hydroxypropylcellulose) (HPC)",98 % of control
same,T/C,"dose: 200.0 mg/kg/injection, schedule: Q04DX002 (ip), vehicle: Klucel (hydroxypropylcellulose) (HPC)",107 % of control
same,T/C,"dose: 400.0 mg/kg/injection, schedule: Q04DX002 (ip), vehicle: Klucel (hydroxypropylcellulose) (HPC)",111 % of control
[N-]=[N+]=CC(=O)CCC(N)C(=O)O (configuration not stated),T/C,"dose: 0.2 mg/kg/injection, schedule: Q04DX003 (ip), vehicle: saline",102 % of control
same,T/C,"dose: 0.39 mg/kg/injection, schedule: Q04DX003 (ip), vehicle: saline",108 % of control
same,T/C,"dose: 0.78 mg/kg/injection, schedule: Q04DX003 (ip), vehicle: saline",108 % of control
same,T/C,"dose: 1.56 mg/kg/injection, schedule: Q04DX003 (ip), vehicle: saline",111 % of control
same,T/C,"dose: 3.13 mg/kg/injection, schedule: Q04DX003 (ip), vehicle: saline",120 % of control
same,T/C,"dose: 6.25 mg/kg/injection, schedule: Q04DX003 (ip), vehicle: saline",119 % of control
Nc1nc(=S)c2ncn(C3CC(O)C(CO)O3)c2[nH]1 (configuration not stated),T/C,"dose: 4.0 mg/kg/injection, schedule: Q04DX002 (ip), vehicle: saline with Tween-80",121 % of control
same,T/C,"dose: 8.0 mg/kg/injection, schedule: Q04DX002 (ip), vehicle: saline with Tween-80",106 % of control
same,T/C,"dose: 10.0 mg/kg/injection, schedule: Q04DX003 (ip), vehicle: saline with Tween-80",177 % of control
same,T/C,"dose: 16.0 mg/kg/injection, schedule: Q04DX002 (ip), vehicle: saline with Tween-80",106 % of control and 119 % of control
same,T/C,"dose: 32.0 mg/kg/injection, schedule: Q04DX002 (ip), vehicle: saline with Tween-80",102 % of control
same,T/C,"dose: 40.0 mg/kg/injection, schedule: Q04DX003 (ip), vehicle: saline with Tween-80",157 % of control
same,T/C,"dose: 64.0 mg/kg/injection, schedule: Q04DX002 (ip), vehicle: saline with Tween-80",124 % of control
same,T/C,"dose: 128.0 mg/kg/injection, schedule: Q04DX002 (ip), vehicle: saline with Tween-80",116 % of control
same,T/C,"dose: 256.0 mg/kg/injection, schedule: Q04DX002 (ip), vehicle: saline with Tween-80",109 % of control
O=[N+]([O-])O.[Ga],T/C,"dose: 12.5 mg/kg/injection, schedule: Q01DX005 (ip), vehicle: saline",97 % of control
same,T/C,[4],103 % of control
same,T/C,"dose: 25.0 mg/kg/injection, schedule: Q01DX005 (ip), vehicle: saline",96 % of control
same,T/C,[5],108 % of control
same,T/C,"dose: 50.0 mg/kg/injection, schedule: Q01DX005 (ip), vehicle: saline",87 % of control
same,T/C,[6],106 % of control
same,T/C,[7],87 % of control
COc1ccc2c(c1O)-c1cccc3c1[C@@H](C2)N(CCCl)CC3,T/C,"dose: 4.0 mg/kg/injection, schedule: Q04DX002 (ip), vehicle: Klucel (hydroxypropylcellulose) (HPC)",107 % of control
same,T/C,"dose: 8.0 mg/kg/injection, schedule: Q04DX002 (ip), vehicle: Klucel (hydroxypropylcellulose) (HPC)",119 % of control
same,T/C,"dose: 16.0 mg/kg/injection, schedule: Q04DX002 (ip), vehicle: Klucel (hydroxypropylcellulose) (HPC)",108 % of control
same,T/C,"dose: 32.0 mg/kg/injection, schedule: Q04DX002 (ip), vehicle: Klucel (hydroxypropylcellulose) (HPC)",124 % of control
CN(C)CCCNc1cccc2c1C(=O)c1cccc(NCCCN(C)C)c1C2=O,T/C,"dose: 8.0 mg/kg/injection, schedule: Q01DX009 (ip), vehicle: saline",106 % of control
same,T/C,"dose: 16.0 mg/kg/injection, schedule: Q01DX009 (ip), vehicle: saline",100 % of control
same,T/C,"dose: 32.0 mg/kg/injection, schedule: Q01DX009 (ip), vehicle: saline",87 % of control
CC[C@@]1(O)C[C@H](OC2CC(N(C)C)C(OC3CC(O)C(OC4CCC(=O)C(C)O4)C(C)O3)C(C)O2)c2c(cc3c(c2O)C(=O)c2c(O)cccc2C3=O)[C@H]1C(=O)OC (some centres not stated),T/C,"dose: 6.2 mg/kg/injection, schedule: Q07DX003 (iv), vehicle: water",105 % of control
same,T/C,"dose: 10.0 mg/kg/injection, schedule: Q07DX003 (iv), vehicle: water",119 % of control
same,T/C,"dose: 16.0 mg/kg/injection, schedule: Q07DX003 (iv), vehicle: water",117 % of control
N=C(N)SCc1c2ccccc2c(CSC(=N)N)c2ccccc12,T/C,[4],241 % of control
same,T/C,[5],186 % of control
same,T/C,[6],248 % of control
same,T/C,[7],216 % of control
same,T/C,"dose: 200.0 mg/kg/injection, schedule: Q04DX003 (ip), vehicle: saline",197 % of control

# Reference: PubChem BioAssay AID210 (DTP/NCI, 2004)
